Like-named read-outs stand apart in the source and are kept apart here.
Columns and labels:
clinical = settings: both, human, in vivo

Structure (SMILES) | AUC0–24, goldenseal exposure / baseline ratio (both, human, in vivo) | ClR, goldenseal exposure / baseline ratio (both, human, in vivo) | Cmax, goldenseal exposure / baseline ratio (both, human, in vivo) | AUC(0-t) (clinical) [µM·h] | CL renal (clinical) [mL/min] | Cmax (clinical) [nM] | AUC(0-t) (clinical; po) [µM·h] | CL renal (clinical; po) [mL/min] | Cmax (clinical; po) [nM] | AUC(0-inf) (clinical) [µM·h] | AUC(0-inf) (clinical; po) [µM·h] | AUC0–72 (human, in vivo) | Cmax (human, in vivo) [nM] | AUC0–72 (human, in vivo, po) | Cmax (human, in vivo, po) [nM] | increase of geometric mean Cmax (in the presence of goldenseal) [%] | increase of systemic exposure (in the presence of goldenseal) | half-life (clinical; po) [h]
CC(C)c1nc(N(C)S(C)(=O)=O)nc(-c2ccc(F)cc2)c1/C=C/[C@@H](O)C[C@@H](O)CC(=O)O [Rosuvastatin acid, rosuvastatin] | 1.01 [0.91–1.13] | 0.96 [0.89–1.03] | 1.08 [0.94–1.22] | 0.06 | 247 | 7.9 | 0.059 | 257 | 7.4 |  |  |  |  |  |  |  |  | 
CN(C)C(=N)N=C(N)N [Metformin, metformin] |  |  |  | 3.6 | 700 | 540 | 4.7 | 683 | 750 | 3.8 | 5 |  |  |  |  |  |  | 
CC(C)c1nc(N(C)S(C)(=O)=O)nc(-c2ccc(F)cc2)c1/C=C/[C@@H]1C[C@@H](O)CC(=O)O1 [Rosuvastatin lactone, rosuvastatin lactone] |  |  |  |  |  |  |  |  |  |  |  | 27 [23–32] nM*h | 1.5 | 28 [24–32] nM*h | 1.5 |  |  | 
Cc1ncc2n1-c1ccc(Cl)cc1C(c1ccccc1F)=NC2 [Midazolam, midazolam] |  |  |  | 0.086 | 1.17 |  | 0.062 | 0.833 | 26 | 0.096 | 0.067 |  |  |  |  | 31 | ~ 40% | 3.9

Reference: publication PMC8058163 (Clinical pharmacology and therapeutics, 2020)
